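Following 48 hours of exposure in 96-well plates, responses at five concentrations were used to interpolate endpoints linearly. The concentration for full growth arrest is given as TGI.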
What was measured:
Test in all cases: growth of human tumour cells (NCI), 48 h
[1] = tested on: DU-145 prostate
[2] = tested on: SNB-75 CNS
[3] = tested on: MDA-N
[4] = tested on: NCI-H23 lung
[5] = tested on: TK-10 renal
[6] = tested on: NCI/ADR-RES ovarian
[7] = tested on: LOX IMVI melanoma
[8] = tested on: M14 melanoma
[9] = tested on: MCF7 breast
[10] = tested on: PC-3 prostate
[11] = tested on: OVCAR-3 ovarian

SMILES | TGI [1] [µM] | TGI [2] [µM] | TGI [3] [µM] | TGI [4] [µM] | TGI [5] [µM] | TGI [6] [µM] | TGI [7] [µM] | TGI [8] [µM] | TGI [9] [µM] | TGI [10] [µM] | TGI [11] [µM]
CC(=O)O[C@@H]1C2=C(C)C=C(O2)[C@H]2O[C@]2(C)C[C@H]2C=C(C(=O)O2)[C@H](OC(C)=O)CC1[C@@]1(C)CO1 (some centres undefined) | > 100 | > 100 | > 100 | > 100 | > 100 | > 100 | 37.6 | 64.2 | 44.8 | > 100 | –
O=C(Cc1nccc2c1[nH]c1ccccc12)OC1C#CCSCC#C/C=C\1 (centres undefined) | > 100 | – | > 100 | – | > 100 | > 100 | > 100 | > 100 | > 100 | > 100 | > 100
COCOc1c(C(O[Si](C)(C)C(C)(C)C)c2cnc(Sc3ccccc3)n2C)ccc(OC)c1OC (centres undefined) | > 100 | 5.77 | 3.34 | > 100 | 16.3 | 2.75 | 3.23 | – | 3.8 | 3.04 | 3.22
CN(C)c1nncc2[nH]cnc12 | > 100 | > 100 | – | > 100 | > 100 | > 100 | – | > 100 | > 100 | > 100 | > 100
Cc1ccc(O)c(-c2cc(-c3cccc(Cl)c3)c(C#N)c(N)n2)c1 | > 100 | – | 37.8 | 77.6 | 44.6 | 90.4 | 30.8 | 46.1 | 42.7 | 83.4 | > 100
c1csc(-c2cc(-c3cccs3)c(-c3cccs3)s2)c1 | > 100 | > 100 | > 100 | > 100 | > 100 | > 100 | – | > 100 | 66.8 | > 100 | > 100
O=C(O)c1cn2c3c(cc(N4CCN(CCO)CC4)cc3c1=O)SCC2 | – | > 66.5 | – | > 100 | – | > 100 | > 100 | – | > 100 | – | > 100
COC(=O)c1ccc(C)cc1/C=C1\Cc2ccc(C)cc2C1=O | 39 | 44 | – | 99.4 | 42.4 | > 100 | 25.6 | 33.5 | 40.6 | > 100 | 31.2
COC(=O)C1=C(O)C(C(=O)OC)[C@]2(O)[C@H](C(=O)OC)[C@H]1C[C@@H](c1c(Cl)cccc1Cl)[C@H]2C(=O)OC (some centres undefined) | 8.2 | 8.7 | 3.02 | 5.44 | – | 7.01 | 3.69 | 2.88 | 12.3 | 10.5 | 7.87
N=c1c2c(-c3ccccc3)c[nH]c2ncn1N | – | > 100 | > 100 | > 100 | > 100 | > 100 | > 100 | > 100 | > 100 | > 100 | > 100
CC1OC2(CC(OCc3ccccc3)C1OCc1ccccc1)OCCO2 (centres undefined) | > 100 | – | > 100 | > 100 | > 100 | > 100 | > 100 | > 100 | > 100 | > 100 | > 100

Reference: PubChem BioAssay (NCI)
